Data from US5043328A, “Formulations containing unsaturated fatty acids for the synthesis of prostaglandins and hydroxy-fatty acids in biological systems” (priority 1986, dated 1991).
Where two headings read alike, the source gives them in different places.

Experiments:
[1] = biological target: T1, enzyme (from seminal vesicles of sheep) (Ovis aries, UniProt P05979)
T1 sequence (P05979 25-600): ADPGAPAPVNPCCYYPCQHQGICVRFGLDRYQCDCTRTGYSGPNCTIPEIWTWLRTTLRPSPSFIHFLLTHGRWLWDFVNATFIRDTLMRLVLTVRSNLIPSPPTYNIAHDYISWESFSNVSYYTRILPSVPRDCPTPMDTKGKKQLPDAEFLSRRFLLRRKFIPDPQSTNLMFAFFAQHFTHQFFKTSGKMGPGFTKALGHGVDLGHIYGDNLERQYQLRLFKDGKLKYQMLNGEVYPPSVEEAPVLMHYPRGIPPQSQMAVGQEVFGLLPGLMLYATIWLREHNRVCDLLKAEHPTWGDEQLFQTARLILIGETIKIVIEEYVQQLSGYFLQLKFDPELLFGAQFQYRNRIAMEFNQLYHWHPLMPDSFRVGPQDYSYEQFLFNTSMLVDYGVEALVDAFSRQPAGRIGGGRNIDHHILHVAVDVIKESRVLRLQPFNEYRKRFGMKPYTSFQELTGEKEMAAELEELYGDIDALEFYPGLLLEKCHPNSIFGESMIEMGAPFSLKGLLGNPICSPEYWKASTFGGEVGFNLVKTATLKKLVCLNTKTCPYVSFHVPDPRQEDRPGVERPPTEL
Protocol: Method 2: Prostaglandin Synthesis
0.3 ml of 0.03M potassium phosphate buffer of pH=8.0 contains 0.5 mg of enzyme (from seminal vesicles of sheep) (Biochemistry 10 (1971) 2372) or homogenate of the inner kidney medulla (Life Sciences 26 (1980) 765), 2.75 μg of ^14 C-arachidonic acid (0.5 μCi) and 0.5 mg of stimulator, and, if appropriate, 0.5 mg of stabilizer substance (see Table 1). After 10 minutes' incubation at 37° C., the reaction is stopped with 0.05 ml of 1.2M citric acid and the mixture is extracted with twice 0.5 ml of ethyl acetate, the combined extracts are freed of solvent, and the residue is dissolved in 0.2 ml of methanol, diluted 1:1 with water and separated by HPLC (nucleosil C-18 column, 125×4.6 mm, from Bischoff, Leonberg, Germany, solvent 300 ml of acetonitrile, 700 ml of water and 1 ml of glacial acetic acid and after 30 minutes pure methanol). The separation of the radioactive fractions is followed by a monitor (LB 504 from Berthold, Wildbad, Germany). The products formed, such as 6-keto-prostaglandin F2alpha, prostaglandin E2, prostaglandin F2alpha and prostaglandin D2, are separated under these conditions.
The prostaglandins PGE2, PGF2 alpha and PGD2 as products from arachidonic acid where quantified by means of method 2, and the sum was related as "total prostaglandin" to 100%. The quantity of "total prostaglandin" formed without the addition of a stimulator was set at f=1; the quantity formed after stimulation was related thereto. f=2 or f=3 therefore means twice or three times the stimulation under the conditions of method 2. The stability of the sample was investigated by means of method 1 (right-hand column). […] Values greater than 25-28% therefore represent a stabilization, and values smaller than 25-28% represent a destabilization. Example No. 1 was carried out without a stimulator. […] The substances test with respect to stabilization (see Method 1 for quantities) were: A) aqueous solution without stabilizer addition, B) ethanolic solution without further addition, C) pyridine solution, D) with rutin, predissolved in dimethyl sulfoxide, dimethyl sulfoxide then stripped off, E) like B) with lecithin, ethanol stripped off, F) like A) with cytochrome c from horse heart (from Boehringer, Mannheim, Germany), G) like A) with methemoglobin (human) (from Sigman, Munich, Germany), H) like A) with bovine serum albumin (from Calbiochem, Frankfurt, Germany), J) like A) or B), but solvent stripped off, K) like J) with cytochrome c, L) like J) with hemoglobin (human) (from Behringwerke, Marburg, Germany), and M) like J) with human serum albumin (from Behringwerke, Marburg, Germany).

[2] = for Stability (% of remaining arachidonic acid by Method 1): 24 h 37° C.; for Stability (% remaining fatty acid by Method 1) / Stabilization (% remaining unsaturated fatty acid by Method 1): 1440 min
Protocol: Method 1: Investigation of the Stability of Unsaturated Fatty Acids in the Formulations
The stabilizing action of substances on polyunsaturated fatty acids was investigated as follows:
Test A for Water-Soluble Substances:
0.125 mg of unsaturated fatty acid or Na salt (see tables) (sodium arachidonate, from Sigma, Munich, Germany) is dissolved in 0.05 ml of water. 0.2 ml of aqueous solution which contains 2 mg of stabilizer and can additionally contain 2 mg of stimulator is mixed in (cf. Table 1), 0.1 ml is then taken out immediately, extracted and analysed (see below). Further processing according to modification 1 or 2.
Modification 1 for Aqueous Solutions
After 24 hours incubation at 37° C., 0.1 ml is again taken, extracted and analysed (see below).
Modification 2 for Solid Mixtures (Lyophilisates)
The test solution is lyophilized, the lyophilisate is incubated for 24 hours at 37° C. and then dissolved again in the previous quantity of water, and 0.1 ml is taken, extracted and analysed (see below).
Test B for Water-Insoluble Substances:
0.125 mg of unsaturated fatty acid (arachidonic acid, 5,8,11,14,17-eicosapentaenoic acid or 8,11,14-eicosatrienoic acid, from Sigma, Munich) is dissolved in 0.05 ml of ethanol or dimethyl sulfoxide. 0.2 ml of ethanol (or dimethyl sulfoxide) which contains 2 mg of stabilizer and can additionally contain 2 mg of the stimulator (cf. Table 1) is added thereto, and 0.1 ml is taken immediately and, as below, extracted and analysed. Further treatment according to modification 1 or 2.
Modification 1 for Solutions
After 24 hours' incubation at 37° C., 0.1 ml is again taken, mixed with 0.1 ml of water, extracted and analysed.
Modification 2 for Solid Mixtures
The remaining solution is freed of solvent, incubated for 24 hours at 37° C. and then dissolved again in 0.15 ml of solvent, and 0.1 ml is taken, mixed with 0.1 ml of water, extracted and analysed.
0.05 ml of 1.2M aqueous citric acid solution is added to the samples obtained, and the samples are extracted with twice 0.5 ml of ethyl acetate, the ethyl acetate is removed from the combined extracts and the residue is dissolved in 0.8 ml of methanol and analysed by means of high-pressure liquid chromatography (HPLC) (Rad Pak C-18 column, 100×8 mm, from Waters, Konigstein, Germany, 1.5 ml/minute, solvent 800 ml of methanol, 200 ml of water and 0.1 ml of glacial acetic acid). The separation is monitored with a commercially available UV detector at 206 nm.
The prostaglandins PGE2, PGF2 alpha and PGD2 as products from arachidonic acid where quantified by means of method 2, and the sum was related as "total prostaglandin" to 100%. The quantity of "total prostaglandin" formed without the addition of a stimulator was set at f=1; the quantity formed after stimulation was related thereto. f=2 or f=3 therefore means twice or three times the stimulation under the conditions of method 2. The stability of the sample was investigated by means of method 1 (right-hand column). […] Values greater than 25-28% therefore represent a stabilization, and values smaller than 25-28% represent a destabilization. Example No. 1 was carried out without a stimulator.

[3] = Table 1, share of total prostaglandin (=100%)
[4] = seminal vesicle enzyme, 10 min, pH 8
[5] = A) aqueous solution without stabilizer addition
[6] = B) ethanolic solution without further addition
[7] = H) like A) with bovine serum albumin
[8] = J) like A) or B), but solvent stripped off
[9] = M) like J) with human serum albumin
[10] = Table 2, share of total prostaglandin

| Compound | PGD2 % [1, 3] [%] | PGE2 % [1, 3] [%] | PGF2alpha % [1, 3] [%] | relative total prostaglandin f [1, 4] | PGD2 % [1, 10] [%] | PGE2 % [1, 10] [%] | PGF2alpha % [1, 10] [%] | Stabilization (% remaining unsaturated fatty acid by Method 1) [2] [%] | other results |
| --- | --- | --- | --- | --- | --- | --- | --- | --- | --- |
| N[C@@H](CCC(=O)N[C@@H](CS)C(=O)NCC(=O)O)C(=O)O [Example 35, Glutathione] | 0 | 100 | 0 | 13.5 |  |  |  |  | Stability (% of remaining arachidonic acid by Method 1) [2, 5]: 0%; Stability (% of remaining arachidonic acid by Method 1) [2, 6]: 80%; Stability (% of remaining arachidonic acid by Method 1) ([2]; C) pyridine solution): 0%; Stability (% of remaining arachidonic acid by Method 1) [2, 7]: 91%; Stability (% of remaining arachidonic acid by Method 1) [2, 8]: 0%; Stability (% of remaining arachidonic acid by Method 1) ([2]; L) like J) with hemoglobin (human)): 92%; undesired decomposition / byproducts of polyunsaturated fatty acid (arachidonic acid) with added stimulator ([2]; aqueous medium, result in words): markedly greater quantity |
| NCCc1ccc(O)c(O)c1 [Example 10] | 13 | 52 | 35 |  |  |  |  |  | Stability (% of remaining arachidonic acid by Method 1) [2, 5]: 17%; Stability (% of remaining arachidonic acid by Method 1) [2, 6]: 95%; Stability (% of remaining arachidonic acid by Method 1) ([2]; C) pyridine solution): 9%; Stability (% of remaining arachidonic acid by Method 1) [2, 7]: 100%; Stability (% of remaining arachidonic acid by Method 1) ([2]; K) like J) with cytochrome c): 98%; Stability (% of remaining arachidonic acid by Method 1) [2, 9]: 100% |
| TrpMetAspPhe [Example 28] | 20 | 73 | 7 |  |  |  |  |  | relative total prostaglandin f ([1]; Table 1, 0.5 mg stimulator, 10 min 37° C., without stimulator f=1): 11.8; Stability (% remaining fatty acid by Method 1) [2]: 97% |
| O=c1c(O)c(-c2ccc(O)cc2)oc2cc(O)cc(O)c12 [Example 56, Kaempferol] |  |  |  | 0.5 | 13 | 76 | 11 | 98 |  |
| N[C@@H](CS)C(=O)O [Example 33, L-cysteine] | 27 | 56 | 17 |  |  |  |  |  | Stability (% remaining fatty acid by Method 1) [2]: 94% |
| CC(=O)NC(Cc1ccc(O)cc1)C(N)=O (stereo not drawn) [Example 11] |  |  |  |  |  |  |  |  | Stimulation ([1]; Table 1, result in words): positive; Stabilization [2]: positive |
| Oc1cc(O)c2c(c1)O[C@H](c1ccc(O)c(O)c1)[C@H](O)C2 [Example 59, Epicatechin] |  |  |  |  | 12 | 71 | 17 | 89 |  |
| O=C1C[C@@H](c2ccc(O)cc2)Oc2cc(O)cc(O)c21 [Example 55, Naringenin] |  |  |  | 1.5 | 20 | 80 | 0 | 96 |  |
| O=C(O)CCc1c[nH]c2ccc(O)cc12 [Example 21] | 17 | 80 | 3 | 5.7 |  |  |  |  | Stability (% remaining fatty acid by Method 1) [2]: 96% |
| NC(Cc1ccc(O)cc1)C(=O)O (stereo not drawn) [Example 6] | 17 | 81 | 2 |  |  |  |  |  | Stability (% of remaining arachidonic acid by Method 1) [2, 5]: 91%; Stability (% of remaining arachidonic acid by Method 1) [2, 6]: 100%; Stability (% of remaining arachidonic acid by Method 1) ([2]; C) pyridine solution): 67%; Stability (% of remaining arachidonic acid by Method 1) [2, 8]: 98%; Stability (% of remaining arachidonic acid by Method 1) ([2]; K) like J) with cytochrome c): 100%; Stability (% of remaining arachidonic acid by Method 1) [2, 9]: 100% |
| C[C@@H]1O[C@@H](O[C@H]2[C@H](Oc3cc(O)c4c(c3)O[C@H](c3ccc(O)cc3)CC4=O)O[C@H](CO)[C@@H](O)[C@@H]2O)[C@H](O)[C@H](O)[C@H]1O [Example 54, Naringin] |  |  |  | 2 | 15 | 83 | 2 | 96 |  |
| COC1=C(OC)C(=O)C(C/C=C(\C)CC/C=C(\C)CC/C=C(\C)CC/C=C(\C)CC/C=C(\C)CC/C=C(\C)CC/C=C(\C)CC/C=C(\C)CC/C=C(\C)CCC=C(C)C)=C(C)C1=O [Example 47, Vitamin Q10, reference compound] |  |  |  | 0.8 | 14 | 8 | 78 | 8 |  |
